EP2085082A1, “Treatment of cognitive decline” (Nutromnia S.R.L., priority 2008, dated 2009)
Several values for one entry are separate records, joined by “and”; a condition that tells them apart may be missing. Identical values can stand only once.

Tests used:
Format in all cases: in vivo
[1] = test system: Goto-Kakizaki rats; assay: Morris water maze, repeated acquisition task, diabetes-related cognitive decline; conditions: 5% dodecanedioic acid pellets for 1 month
Experimental: (§1) In order to evaluate the impact of a diet enriched with dicarboxylic acids on diabetes-related cognitive decline, 10 Wistar rats and 20 Goto-Kakizaki rats of both sexes (half male and half female), aged 4 months were used.
(§2) Rats of the same sex were housed (2-3 per cage) in a colony room with a 12:12 light- dark cycle and ad libitum access to food and water. All behavioral testing occurred during the light phase of the light- dark cycle. Body weight was recorded twice a week.
(§3) Ten Goto-Kakizaki rats (treated group) were selected at random from the initial group of 20 animals and were fed with pellets enriched with 5% dodecanedioic acid. The remaining ten Goto-Kakizaki rats formed the control group and received standard Purina chow. A group of ten Wistar rats was also fed with standard Purina chow, as second control group.
(§4) The dietary supplementation was carried out for 1 month and in the last week of treatment the different groups underwent some tasks in the Morris water maze in order to test their cognitive abilities.
(§5) A large metal pool (180 cm in diameter) filled with opaque water and kept at a constant temperature 24 ± 1°C and a 10 cm platform were used in place discrimination and visual discrimination tasks. A straight plastic alley (10 × 70 cm) was placed in the large pool and used during the straight swim test to estimate swimming ability. A video-camera was used to record the different phases of the experiments.
(§6) The training started on the day after the place discrimination task and consisted of 1 day of training with two sessions of 9 trials each. During the first session, the set of extra maze cues, as well as the location of platform, was different from that on the previous place discrimination task. During the second session, the platform was moved to the new position, with the set of external cues remaining the same. Each session consisted of eight platform trials and one probe trial. The measures of platform and probe trials were the same as in the place discrimination task.
Data are reported as mean ± SD. Comparison between groups was made by repeated-measures ANOVA. […]

[2] = test system: Wistar rats; assay: Morris water maze, repeated acquisition task, age-related cognitive decline; conditions: old Wistar rats, 5% dodecanedioic acid pellets for 3 months
Experimental: (§7) In order to evaluate the impact of a diet enriched with dicarboxylic acids on age-related cognitive decline, 20 Wistar rats of both sexes (half male and half female), 4 months old and 23 months old were used.
(§8) Rats of the same sex were housed (2-3 per cage) in a colony room with a 12:12 light- dark cycle and ad libitum access to food and water. All behavioural testing occurred during the light phase of the light- dark cycle. Body weight was recorded twice a week.
(§9) The rats were divided in two groups of 10. The rats of a group (treated group) were fed with pellets enriched with 5% dodecanedioic acid, the rats of the other group being the control group. The dietary supplementation was carried out for 3 months and in the last week of treatment both groups underwent some tasks in the Morris water maze in order to test their cognitive abilities.
as §5, §6
(§10) Data are reported as mean ± SD. Comparison between groups was made by repeated-measures ANOVA. Body weight was used as a covariance to adjust the significance of between-group differences in speed of swimming. P<0.05 was considered as significant.

[3] = test system: Goto-Kakizaki rats; assay: Morris water maze, place discrimination task, diabetes-related cognitive decline; conditions: average value (mean ± SD, 10 rats), 5% dodecanedioic acid pellets for 1 month, listed as dodecanoic acid
[4] = test system: Goto-Kakizaki rats; assay: as above; conditions: for Travelled distance / time of permanence in the correct quadrant / time to find the platform: Goto-Kakizaki rats
Experimental: as §1, §2, §3, §4, §5
(§11) Each rat received 1 day of training with three sessions of five platform trials and one probe trial each and a random order of start positions. During the platform trials, the platform was submerged but accessible to the rat, whereas during the probe trials, the platform was collapsed at the bottom of the tank for variable intervals (from 10 to 40 sec) to test the subject's preference for the platform location. The collapsed platform was then returned to its raised position at the end of the probe trial to maintain the same response-reinforcement contingency as in the platform trials. The percentage of time spent in the correct quadrant, the choice accuracy [i.e. the time in seconds to find the platform], and the travelled distance or distance swum to find and climb on the platform [in centimeters] were measured. A a shorter time to find the platform indicate better performance. Higher scores for a percentage of time spent in the correct quadrant reflected better performance. Location of the platform and a set of spatial cues around the tank were changed between the testing periods.
as §10

[5] = test system: Wistar rats; assay: Morris water maze, place discrimination task, age-related cognitive decline; conditions: for Swimming time (choice accuracy, time to find the platform): pellets enriched with 5% dodecanedioic acid for 3 months
Experimental: as §7, §8, §9, §5, §11, §10

[6] = average value (mean ± SD, 10 rats)
[7] = administered orally, rats, overall conclusion
[8] = average value (mean ± SD, 10 rats), 5% dodecanedioic acid pellets for 1 month
[9] = individual data per rat, 5% dodecanedioic acid pellets for 1 month
[10] = individual data per rat, old Wistar rats, 5% dodecanedioic acid pellets for 3 months

O=C(O)CCCCCCCCCCC(=O)O [C12, dodecanedioic acid]
REPEATED ACQUISITION TASK TRAVELLED DISTANCE [1, 6]: 374,10 cm | REPEATED ACQUISITION TASK TRAVELLED DISTANCE ([1]; average value (mean ± SD, 10 rats), listed as dodecanoic acid): 374.1±78.23 cm | REPEATED ACQUISITION TASK TRAVELLED DISTANCE ([1]; individual data per rat): 403 cm and 300 cm (3×) and 370 cm and 359 cm and 291 cm and 444 cm and 498 cm and 476 cm | Travelled distance in repeated trials [2, 6]: 327,00 cm | Travelled distance in repeated trials ([2]; average value (mean ± SD, 10 rats), listed as dodecanedioic acid): 327.0±80.4 cm | Travelled distance in repeated trials ([2]; individual data per rat): 400 cm and 300 cm (3×) and 200 cm and 350 cm and 410 cm and 260 cm and 470 cm and 280 cm | Travelled distance [3]: 423.6±83.82 cm | diabetes-related decline in various cognitive functions [4, 7]: ameliorates | Travelled distance [4, 8]: 423,60 cm | time of permanence in the correct quadrant [4, 8]: 44,00 sec | time to find the platform [4, 8]: 23,24 sec | time to find the platform ([4]; average value (mean ± SD, 10 rats), 5% dodecanedioic acid pellets for 1 month, listed as dodecanedioic acid): 23.24 ± 2.81 s | Travelled distance [4, 9]: 306 cm and 418 cm and 511 cm (2×) and 368 cm and 354 cm and 477 cm and 541 cm and 326 cm and 424 cm | time of permanence in the correct quadrant [4, 9]: 41 sec (2×) and 49 sec and 50 sec and 46 sec and 39 sec and 47 sec and 45 sec and 44 sec and 38 sec | time to find the platform ([4]; individual data per rat, pellets enriched with 5% dodecanedioic acid for 1 month): 18,4 sec and 22,6 sec and 23,4 sec and 25,9 sec and 27 sec and 24 sec and 22,1 sec and 23,5 sec and 26,2 sec and 19,3 sec | age-related decline in various cognitive functions [5, 7]: ameliorates | time in the correct quadrant ([5]; average value (10 rats), old Wistar rats, 5% dodecanedioic acid pellets for 3 months): 41,70% | Travelled distance ([5]; average value (mean ± SD, 10 rats), old Wistar rats, 5% dodecanedioic acid pellets for 3 months): 409,50 cm | Travelled distance ([5]; average value (mean ± SD, 10 rats), old Wistar rats, 5% dodecanedioic acid pellets for 3 months, listed as dodecanoic acid): 409.5± 98.6 cm | Swimming time (choice accuracy, time to find the platform) ([5]; average value (mean ± SD, 10 rats), old Wistar rats): 19,59 sec | Swimming time (choice accuracy, time to find the platform) ([5]; average value (mean ± SD, 10 rats), old Wistar rats, listed as dodecanedioic acid): 19.6 ± 1.6 s | Swimming time ([5]; individual data per rat, old Wistar rats fed pellets enriched with 5% dodecanedioic acid for 3 months): 21,8 sec and 18 sec (3×) and 22 sec and 19 sec and 21 sec and 20 sec and 18,5 sec and 19,6 sec | Travelled distance [5, 10]: 370 cm and 400 cm and 300 cm (2×) and 580 cm and 450 cm and 520 cm and 350 cm and 325 cm and 500 cm | time in the correct quadrant [5, 10]: 35% (2×) and 50% and 45% and 40% and 42% and 44% and 48% and 37% and 41% | time of permanence in the correct quadrant ([5]; mean ± SD as given in text, old Wistar rats, 5% dodecanedioic acid pellets for 3 months): 41.7±5.2 % sec
